According to US10780090B2, “Heteroaryl compounds useful as inhibitors of SUMO activating enzyme” (Millennium Pharmaceuticals, Inc., priority 2014, dated 2020):
Read-outs that look alike come from different tables or passages of the source.

Biological target: recombinant human SAE enzyme (Homo sapiens (Human), UniProt Q9UBT2)
Experiment: SAE HTRF enzyme assay
Type: biochemical
Conditions: for inhibition at 0.111 µM: read-out: Percent Inhibition
Outline: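 Human SAE (0.11 nM) with 0.5 μM ATP, 0.125 μM Sumo-Flag and 0.01 μM Ubc9-GST in HEPES pH 7.5, 5 mM MgCl2, 250 μM GSH; 105 min at 24 °C. Stopped with EDTA; HTRF read after 2 h with Eu-anti-Flag and APC-anti-GST. Percent inhibition or IC50 reported.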

[1] = SAE inhibition at compound concentration 0.111 μM
[2] = SAE inhibition, class symbols, legend in nM

recombinant human SAE enzyme, sequence (Q9UBT2 whole entry): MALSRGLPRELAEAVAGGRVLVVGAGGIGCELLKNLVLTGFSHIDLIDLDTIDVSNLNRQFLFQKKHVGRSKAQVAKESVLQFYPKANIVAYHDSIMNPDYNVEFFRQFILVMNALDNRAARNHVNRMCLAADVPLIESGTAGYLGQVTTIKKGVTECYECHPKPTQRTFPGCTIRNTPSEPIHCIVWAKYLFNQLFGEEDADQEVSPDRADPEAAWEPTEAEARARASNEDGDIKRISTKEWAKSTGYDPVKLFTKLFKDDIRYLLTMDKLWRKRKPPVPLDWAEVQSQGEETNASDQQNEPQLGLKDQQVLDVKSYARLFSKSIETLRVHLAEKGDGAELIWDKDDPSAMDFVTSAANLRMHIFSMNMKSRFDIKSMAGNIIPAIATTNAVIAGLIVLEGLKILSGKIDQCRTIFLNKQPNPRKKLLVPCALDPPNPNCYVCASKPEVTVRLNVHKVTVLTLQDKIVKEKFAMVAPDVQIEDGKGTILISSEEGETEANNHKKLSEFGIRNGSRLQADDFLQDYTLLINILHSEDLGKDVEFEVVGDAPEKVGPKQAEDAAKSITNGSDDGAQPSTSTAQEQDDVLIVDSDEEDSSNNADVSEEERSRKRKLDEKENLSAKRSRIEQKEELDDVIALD
recombinant human SAE enzyme, sequence (Q9UBE0 whole entry partner): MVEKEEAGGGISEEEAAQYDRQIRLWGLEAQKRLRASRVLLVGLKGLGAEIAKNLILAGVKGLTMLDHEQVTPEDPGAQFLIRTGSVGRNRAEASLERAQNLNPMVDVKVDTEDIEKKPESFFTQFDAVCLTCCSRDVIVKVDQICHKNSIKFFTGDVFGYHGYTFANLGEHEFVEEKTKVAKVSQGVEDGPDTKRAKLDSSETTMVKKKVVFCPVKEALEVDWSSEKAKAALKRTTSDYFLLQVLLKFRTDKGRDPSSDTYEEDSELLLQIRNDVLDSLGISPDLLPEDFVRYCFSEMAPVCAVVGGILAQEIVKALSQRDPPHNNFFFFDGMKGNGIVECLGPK

| Compound | inhibition at 0.111 µM (Concentration 0.111 μM) [%] | IC50 (class symbols A/B/C) [nM] | Percent Inhibition (Concentration 0.111 μM) | further results |
| --- | --- | --- | --- | --- |
| NS(=O)(=O)OC[C@H]1C[C@@H](Nc2ncncc2C(=O)c2ccc(Cc3cccc(Cl)c3)s2)[C@@H](F)[C@@H]1O [I-205, {(1R,2R,3R,4R)-4-[(5-{[5-(3-Chlorobenzyl)-2-thienyl]carbonyl}pyrimidin-4-yl)amino]-3-fluoro-2-hydroxycyclopentyl}methyl sulfamate] | 51 | 100 to 1000 |  |  |
| NS(=O)(=O)OC[C@H]1C[C@@H](Nc2ncncc2C(=O)c2cc([C@H]3NCCc4ccccc43)cs2)[C@H](O)[C@@H]1O (mixture of isomers) [I-295, [(1R,2R,3S,4R)-2,3-dihydroxy-4-{[5-({4-[(1S)-1,2,3,4-tetrahydroisoquinolin-1-yl]-2-thienyl}carbonyl)pyrimidin-4-yl]amino}cyclopentyl]methyl sulfamate and [(1R,2R,3S,4R)-2,3-dihydroxy-4-{[5-({4-[(1R)-1,2,3,4-tetrahydroisoquinolin-1-yl]-2-thienyl}carbonyl)pyrimidin-4-yl]amino}cyclopentyl]methyl sulfamate] |  |  |  | Percent Inhibition [1]: 99%; IC50 [2]: < 10 nM |
| Cc1sc(C(=O)c2cncnc2N[C@@H]2C[C@H](COS(N)(=O)=O)[C@@H](O)C2)cc1[C@@H]1OCCc2ccc(Cl)nc21 (single isomer, unassigned) [I-286b, [(1R,2S,4R)-4-{[5-({4-[(8S)-2-chloro-5,8-dihydro-6H-pyrano[3,4-b]pyridin-8-yl]-5-methyl-2-thienyl}carbonyl)pyrimidin-4-yl]amino}-2-hydroxycyclopentyl]methyl sulfamate or [(1R,2S,4R)-4-{[5-({4-[(8R)-2-chloro-5,8-dihydro-6H-pyrano[3,4-b]pyridin-8-yl]-5-methyl-2-thienyl}carbonyl)pyrimidin-4-yl]amino}-2-hydroxycyclopentyl]methyl sulfamate] |  |  |  | Percent Inhibition [1]: 99%; IC50 [2]: < 10 nM |
| N#Cc1cccc(Cc2csc(C(=O)c3cncnc3N[C@@H]3C[C@H](COS(N)(=O)=O)[C@@H](O)C3)c2)c1 [I-185, {(1R,2S,4R)-4-[(5-{[4-(3-cyanobenzyl)-2-thienyl]carbonyl}pyrimidin-4-yl)amino]-2-hydroxycyclopentyl}methyl sulfamate] | 80 | 10 to 100 |  |  |
| Cc1sc(C(=O)c2cncnc2NC2CC(O)C(COS(N)(=O)=O)C2)cc1C1OCCc2ccccc21 (mixture of isomers) [I-256, [(1R,2S,4R)-4-{[5-({4-[(1R)-3,4-dihydro-1H-isochromen-1-yl]-5-methyl-2-thienyl}carbonyl)pyrimidin-4-yl]amino}-2-hydroxycyclopentyl]methyl sulfamate and [(1R,2S,4R)-4-{[5-({4-[(1S)-3,4-dihydro-1H-isochromen-1-yl]-5-methyl-2-thienyl}carbonyl)pyrimidin-4-yl]amino}-2-hydroxycyclopentyl]methyl sulfamate] |  | < 10 | 100 |  |
| NS(=O)(=O)OC[C@H]1C[C@@H](Nc2ncncc2C(=O)c2cc(C(=O)c3ccccc3)co2)C[C@@H]1O [I-208, [(1R,2S,4R)-4-{[5-(4-benzoyl-2-furoyl)pyrimidin-4-yl]amino}-2-hydroxycyclopentyl]methyl sulfamate] | 46 | 100 to 1000 |  |  |
| Cc1sc(C(=O)c2cncnc2N[C@@H]2C[C@H](COS(N)(=O)=O)[C@@H](O)C2)cc1S(=O)(=O)c1cccc(Cl)c1 [I-181, [(1R,2S,4R)-4-{[5-({4-[(3-chlorophenyl)sulfonyl]-5-methyl-2-thienyl}carbonyl)pyrimidin-4-yl]amino}-2-hydroxycyclopentyl]methyl sulfamate] | 82 | 10 to 100 |  |  |
| NS(=O)(=O)OC[C@H]1C[C@@H](Nc2ncncc2C(=O)c2cc(CC3CCCCC3)cs2)C[C@@H]1O [I-199, {(1R,2S,4R)-4-[(5-{[4-(Cyclohexylmethyl)-2-thienyl]carbonyl}pyrimidin-4-yl)amino]-2-hydroxycyclopentyl}methyl sulfamate] | 63 | 10 to 100 |  |  |
| Cc1sc(C(=O)c2cncnc2N[C@@H]2C[C@H](COS(N)(=O)=O)[C@@H](O)C2)cc1Cn1cc(Br)cn1 [I-39, [(1R,2S,4R)-4-{[5-({4-[(4-bromo-1H-pyrazol-1-yl)methyl]-5-methyl-2-thienyl}carbonyl)pyrimidin-4-yl]amino}-2-hydroxycyclopentyl]methyl sulfamate] | 98 |  |  |  |
| NS(=O)(=O)OC[C@H]1C[C@@H](Nc2ncncc2C(=O)c2cc([C@@H]3OCCc4cccnc43)c(Cl)s2)C[C@@H]1O (single isomer, unassigned) [I-266b, [(1R,2S,4R)-4-{[5-({5-chloro-4-[(8S)-5,8-dihydro-6H-pyrano[3,4-b]pyridin-8-yl]-2-thienyl}carbonyl)pyrimidin-4-yl]amino}-2-hydroxycyclopentyl]methyl sulfamate or [(1R,2S,4R)-4-{[5-({5-chloro-4-[(8R)-5,8-dihydro-6H-pyrano[3,4-b]pyridin-8-yl]-2-thienyl}carbonyl)pyrimidin-4-yl]amino}-2-hydroxycyclopentyl]methyl sulfamate] |  | < 10 | 100 |  |
| NS(=O)(=O)OC[C@H]1C[C@@H](Nc2ncncc2C(=O)c2cc([C@@H]3OCCc4ccccc43)cs2)C[C@@H]1O (single isomer, unassigned) [I-254a, [(1R,2S,4R)-4-{[5-({4-[(1R)-3,4-dihydro-1H-isochromen-1-yl]-2-thienyl}carbonyl)pyrimidin-4-yl]amino}-2-hydroxycyclopentyl]methyl sulfamate or [(1R,2S,4R)-4-{[5-({4-[(1S)-3,4-dihydro-1H-isochromen-1-yl]-2-thienyl}carbonyl)pyrimidin-4-yl]amino}-2-hydroxycyclopentyl]methyl sulfamate] |  | 10 to 100 | 81 |  |
| NS(=O)(=O)OC[C@H]1C[C@@H](Nc2ncncc2C(=O)c2cc([C@@H]3OCCc4ccc(Br)cc43)cs2)C[C@@H]1O.NS(=O)(=O)OC[C@H]1C[C@@H](Nc2ncncc2C(=O)c2cc([C@H]3OCCc4ccc(Br)cc43)cs2)C[C@@H]1O (mixture of isomers) [I-268, [(1R,2S,4R)-4-{[5-({4-[(1R)-7-bromo-3,4-dihydro-1H-isochromen-1-yl]-2-thienyl}carbonyl)pyrimidin-4-yl]amino}-2-hydroxycyclopentyl]methyl sulfamate and [(1R,2S,4R)-4-{[5-({4-[(1S)-7-bromo-3,4-dihydro-1H-isochromen-1-yl]-2-thienyl}carbonyl)pyrimidin-4-yl]amino}-2-hydroxycyclopentyl]methyl sulfamate] |  | < 10 | 100 |  |
| Cc1sc(C(=O)c2cncnc2N[C@@H]2C[C@H](COS(N)(=O)=O)[C@@H](O)C2)nc1Cc1cccc(Cl)c1 [I-353, {(1R,2S,4R)-4-[(5-{[4-(3-chlorobenzyl)-5-methyl-1,3-thiazol-2-yl]carbonyl}pyrimidin-4-yl)amino]-2-hydroxycyclopentyl}methyl sulfamate] |  |  |  | inhibition at 0.111 µM [1]: 98%; IC50 [2]: < 10 nM |
| C[C@](O)(c1cccc(Cl)c1)c1coc(C(=O)c2cncnc2N[C@@H]2C[C@H](COS(N)(=O)=O)[C@@H](O)C2)c1 (single isomer, unassigned) [I-30a, {(1R,2S,4R)-4-[(5-{4-[(1S)-1-(3-chlorophenyl)-1-hydroxyethyl]-2-furoyl}pyrimidin-4-yl)amino]-2-hydroxycyclopentyl}methyl sulfamate or {(1R,2S,4R)-4-[(5-{4-[(1R)-1-(3-chlorophenyl)-1-hydroxyethyl]-2-furoyl}pyrimidin-4-yl)amino]-2-hydroxycyclopentyl}methyl sulfamate] |  | < 10 | 100 |  |
| Cc1sc(C(=O)c2cncnc2N[C@@H]2C[C@H](COS(N)(=O)=O)[C@@H](O)C2)cc1[C@@H]1OCCc2ccsc21 (mixture of isomers) [I-269, [(1R,2S,4R)-4-{[5-({4-[(7S)-4,7-dihydro-5H-thieno[2,3-c]pyran-7-yl]-5-methyl-2-thienyl}carbonyl)pyrimidin-4-yl]amino}-2-hydroxycyclopentyl]methyl sulfamate and [(1R,2S,4R)-4-{[5-({4-[(7R)-4,7-dihydro-5H-thieno[2,3-c]pyran-7-yl]-5-methyl-2-thienyl}carbonyl)pyrimidin-4-yl]amino}-2-hydroxycyclopentyl]methyl sulfamate] |  | < 10 | 99 |  |
| NS(=O)(=O)OC[C@H]1C[C@@H](Nc2ncncc2C(=O)c2ccc(Cc3ccccc3)s2)[C@H](O)[C@@H]1O [I-115, [(1R,2R,3S,4R)-4-({5-[(5-benzyl-2-thienyl)carbonyl]pyrimidin-4-yl}amino)-2,3-dihydroxycyclopentyl]methyl sulfamate] | 90 |  |  |  |
| N[C@H](c1cccc(Br)c1)c1cc(C(=O)c2cncnc2N[C@@H]2C[C@H](COS(N)(=O)=O)[C@@H](O)[C@H]2O)sc1Cl (single isomer, unassigned) [I-24a, [(1R,2R,3S,4R)-4-{[5-({4-[(R)-amino(3-bromophenyl)methyl]-5-chloro-2-thienyl}carbonyl)pyrimidin-4-yl]amino}-2,3-dihydroxycyclopentyl]methyl sulfamate or [(1R,2R,3S,4R)-4-{[5-({4-[(S)-amino(3-bromophenyl)methyl]-5-chloro-2-thienyl}carbonyl)pyrimidin-4-yl]amino}-2,3-dihydroxycyclopentyl]methyl sulfamate] |  | < 10 | 101 |  |
| NS(=O)(=O)OC[C@H]1C[C@@H](Nc2ncncc2C(=O)c2ccc(Cc3cccc(Cl)c3)o2)C[C@@H]1O [I-93, [(1R,2S,4R)-4-({5-[5-(3-chlorobenzyl)-2-furoyl]pyrimidin-4-yl}amino)-2-hydroxycyclopentyl]methyl sulfamate] | 98 |  |  |  |
